Patent publication US12545658B2, “Pyridine derivatives as calcium-activated chloride channel modulators” (TMEM16A LIMITED, priority 2019, dated 2026)

Target: T1, human TMEM16A (TMEM16Aabc variant) (Homo sapiens, UniProt Q5XXA6)
T1 construct: human TMEM16A (TMEM16Aabc variant)
T1 sequence (Q5XXA6 1-986): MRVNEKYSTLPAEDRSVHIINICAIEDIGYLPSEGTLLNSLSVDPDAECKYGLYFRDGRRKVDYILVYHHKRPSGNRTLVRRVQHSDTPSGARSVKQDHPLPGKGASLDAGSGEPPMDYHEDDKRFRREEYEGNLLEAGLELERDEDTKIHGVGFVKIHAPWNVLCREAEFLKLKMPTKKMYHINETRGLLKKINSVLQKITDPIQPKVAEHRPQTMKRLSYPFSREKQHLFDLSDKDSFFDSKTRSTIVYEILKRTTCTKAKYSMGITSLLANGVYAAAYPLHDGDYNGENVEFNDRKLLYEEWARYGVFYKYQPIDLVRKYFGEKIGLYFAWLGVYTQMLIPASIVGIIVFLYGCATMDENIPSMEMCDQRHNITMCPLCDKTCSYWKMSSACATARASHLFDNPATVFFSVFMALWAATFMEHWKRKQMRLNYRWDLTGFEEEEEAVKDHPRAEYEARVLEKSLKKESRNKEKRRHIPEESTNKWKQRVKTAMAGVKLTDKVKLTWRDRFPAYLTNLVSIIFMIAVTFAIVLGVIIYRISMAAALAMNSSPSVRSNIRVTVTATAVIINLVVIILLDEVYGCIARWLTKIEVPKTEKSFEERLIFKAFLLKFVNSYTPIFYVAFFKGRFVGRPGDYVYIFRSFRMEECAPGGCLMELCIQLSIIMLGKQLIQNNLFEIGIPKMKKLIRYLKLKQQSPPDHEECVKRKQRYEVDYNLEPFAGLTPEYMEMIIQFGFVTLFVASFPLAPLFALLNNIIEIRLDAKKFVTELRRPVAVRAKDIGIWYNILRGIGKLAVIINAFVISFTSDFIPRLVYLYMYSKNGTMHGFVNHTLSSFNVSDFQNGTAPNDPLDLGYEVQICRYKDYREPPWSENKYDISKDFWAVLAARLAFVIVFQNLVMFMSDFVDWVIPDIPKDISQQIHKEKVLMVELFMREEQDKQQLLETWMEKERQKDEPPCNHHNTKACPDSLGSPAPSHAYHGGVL
Test: Automated whole-cell patch clamp (QPatch) TMEM16A potentiator assay in FRT cells stably expressing human TMEM16A
Format: cell-based
Conditions: for QPatch TMEM16A % Potentiation @ 370 nM: 370 nM test compound; for QPatch TMEM16A % Potentiation @ 370 nM / QPatch TMEM16A % Potentation @ 3.3 μM: percentage increase of baseline TMEM16A current; for QPatch TMEM16A % Potentation @ 3.3 μM: 3.3 μM test compound; for EC50: FRT-TMEM16A cells, whole-cell patch clamp, peak current at +70 mV, intracellular calcium at EC20
Experimental: Fisher rat thyroid (FRT) cells stably expressing human TMEM16A (TMEM16Aabc variant; Dr Luis Galietta, Insituto Giannina, Italy) were cultured in T-75 flasks in Hams F-12 media with Coon's modification (Sigma) supplemented with 10% (v/v) foetal bovine serum, penicillin-streptomycin (10,000 U/mL/10000 μg/mL), G-418 (750 μg/mL), L-glutamine (2 mM) and sodium bicarbonate solution (7.5% v/v). At ˜90% confluence cells were harvested for experiments by detachment with a 2:1 (v/v) mixture of Detachin (BMS Biotechnology) and 0.25% (w/v) trypsin-EDTA.
FRT-TMEM16A cells were whole-cell patch clamped using an automated planar patch clamp system (Qpatch, Sophion). Briefly, once high resistance (GOhm) seals were established between the cells and the planar recording array the patch was ruptured using suction pulses to establish the whole-cell recording configuration of the patch clamp technique. The assay employed the following solutions (all reagents Sigma): Intracellular solution (mM): N-methyl-D-glucamine 130, CaCl2 18.2, MgCl2 1, HEPES 10, EGTA 10, BAPTA 20, Mg-ATP 2, pH 7.25, 325 mOsm with sucrose.
Extracellular solution (mM): N-methyl-D-glucamine 130, CaCl2 2, MgCl2 1, HEPES 10, pH 7.3, 320 mOsm with sucrose.
The intracellular solution buffers intracellular calcium at levels required to give ˜20% activation of the maximal TMEM16A mediated current (EC20 for calcium ions). Cells were voltage clamped at a holding potential of −70 mV and a combined voltage step (to +70 mV)/ramp (−90 my to +90 mV) was applied at 0.05 Hz. After a period of current stabilisation test compounds, solubilised in 100% (v/v) DMSO and subsequently diluted into extracellular solution, were applied to generate a cumulative concentration response curve. Each concentration of test compound was incubated for 5 minutes before addition of the next concentration. After the final concentration was tested a supramaximal concentration of either a known active positive modulator or the TMEM16A inhibitor, CaCCinhA01 (Del La Fuente et al, 2008) was added to define the upper and lower limits of the assay.
Compound activity was quantified by measuring the increase in current upon compound addition and expressing this as a percentage increase of baseline TMEM16A current level.
In FIG. 1, IBL equals baseline current, I[#1] equals the peak current during test compound concentration 1 incubation period and so on.
Peak TMEM16A current at +70 mV was plotted as a function of time over the assay period. Baseline current (IBL) was measured after a period of stabilisation. The increase in current for each compound addition was determined by taking the peak current during the incubation period and subtracting the current from the previous recording period and then expressing this as a percentage of the baseline current (% potentiation). For test compound concentration 1 in FIG. 1 this is: (I[#1]−IBL/IBL)×100 For each additional concentration tested the increase in current was determined by subtracting the current from the previous incubation period and normalising the baseline value—for test concentration 2 in FIG. 1 this is: (I[#2]−I[#1])/IBL)×100 The values for each test concentration were plotted as a cumulative function of concentration eg. for test concentration two this would be the sum of the peak changes measured during concentration one plus concentration two.

SMILES	QPatch TMEM16A % Potentiation @ 370 nM [%]	QPatch TMEM16A % Potentation @ 3.3 μM [%]	EC50 [nM]	maximum potentiation of TMEM16A compared with Compound B (versus comparator Compound B)
CC(C)(C)NC(=O)c1cc(NC(=O)Cc2cc(F)c3cn[nH]c3c2)ccn1 [Example 7, N-tert-Butyl-4-[[2-(4-fluoro-1H-indazol-6-yl)acetyl]amino]pyridine-2-carboxamide]	88	95	70	–
C#CC1(NC(=O)c2cc(NC(=O)Cc3ccc4cn[nH]c4c3)ccn2)CCCC1 [Example 4, N-(1-Ethynylcyclopentyl)-4-[[2-(1H-indazol-6-yl)acetyl]amino]pyridine-2-carboxamide]	96	237	10	–
O=C(Cc1ccc2cn[nH]c2c1)Nc1ccnc(C(=O)NC2CCCC2(F)F)c1 (stereo not shown) [Example 5.3, N-(2,2-Difluorocyclopentyl)-4-[[2-(1H-indazol-6-yl)acetyl]amino]pyridine-2-carboxamide]	69	113	250	–
CC(C)(NC(=O)c1cc(NC(=O)Cc2ccc3cn[nH]c3c2)ccn1)C(F)(F)F [Example 4.1, 4-[[2-(1H-Indazol-6-yl)acetyl]amino]-N-(2,2,2-trifluoro-1,1-dimethyl-ethyl)pyridine-2-carboxamide]	96	118	90	–
O=C(Cc1ccc2c(C(F)(F)F)n[nH]c2c1)Nc1ccnc(C(=O)NC2(C(F)(F)F)CC2)c1 [Example 8.1, N-[1-(Trifluoromethyl)cyclopropyl]-4-[[2-[3-(trifluoromethyl)-1H-indazol-6-yl]acetyl]amino]pyridine-2-carboxamide]	97	267	600	–
O=C(Cc1ccc2cn[nH]c2c1)Nc1ccnc(C(=O)NC2(C(F)F)CC2)c1 [Example 11.4, N-[1-(Difluoromethyl)cyclopropyl]-4-[[2-(1H-indazol-6-yl)acetyl]amino] pyridine-2-carboxamide]	85	132	210	–

Second part, the compound after the results:

QPatch TMEM16A % Potentiation @ 370 nM [%]	QPatch TMEM16A % Potentation @ 3.3 μM [%]	EC50 [nM]	maximum potentiation of TMEM16A compared with Compound B (versus comparator Compound B)	SMILES
145	173	70	improved maximum potentiation of TMEM16A	O=C(Cc1ccc2cc[nH]c2c1)Nc1ccnc(C(=O)NC2(C(F)(F)F)CC2)c1 [Example 1.1, 4-[[2-(1H-indol-6-yl)acetyl]amino]-N-[1-(trifluoromethyl)cyclopropyl]pyridine-2-carboxamide]
117	180	220	–	O=C(Cc1ccc2cn[nH]c2c1)Nc1ccnc(C(=O)NC2(C(F)(F)F)COC2)c1 [Example 11.3, 4-[[2-(1H-Indazol-6-yl)acetyl]amino]-N-[3-(trifluoromethyl)oxetan-3-yl]pyridine-2-carboxamide]
107	153	140	–	O=C(Cc1cc2[nH]ncc2cc1F)Nc1ccnc(C(=O)NC2(C(F)(F)F)CC2)c1 [Example 6.1, 4-[[2-(5-Fluoro-1H-indazol-6-yl)acetyl]amino]-N-[1-(trifluoromethyl)cyclopropyl]pyridine-2-carboxamide]
91	164	230	–	CC(C)(C)NC(=O)c1cc(NC(=O)Cc2cc3[nH]ncc3cc2F)ccn1 [Example 6, N-tert-Butyl-4-[[2-(5-fluoro-1H-indazol-6-yl)acetyl]amino]pyridine-2-carboxamide]
172	220	110	–	O=C(Cc1cc(Cl)c2cn[nH]c2c1)Nc1ccnc(C(=O)NC2(C(F)(F)F)CC2)c1 [Example 6.3, 4-[[2-(4-Chloro-1H-indazol-6-yl)acetyl]amino]-N-[1-(trifluoromethyl)cyclopropyl]pyridine-2-carboxamide]
